According to patent US11684611B2, “Compounds for treating diseases associated with a mitochondrial dysfunction” (Amabiotics, priority 2016, dated 2023):

Tested on: rat primary dopaminergic neurons (TH positive neurons)
Test: Neuroprotective effect on rat primary cultures of dopaminergic neurons injured by 6-OHDA (count of TH positive neurons)
Type: cell-based
Conditions: for survival of primary dopaminergic neuron culture (TH positive neurons), % of control: p<0.05 vs 6-OHDA
Method: Accordingly, this study investigates the effect of queuine on rat primary mesencephalic cultures injured by exposure to 6-OHDA.
Rat dopaminergic neurons are cultured as described by Schinelli et al. (1988) J. Neurochem. 50:1900-1907.
Briefly, pregnant female rats (Wistar rats; Janvier) at 15 days of gestation are killed by cervical dislocation and the fetuses are removed from the uterus. The embryonic midbrains is removed and placed in ice-cold Leibovitz medium (L15; PanBiotech) containing 2% of Penicillin-Streptomycin (PS; PanBiotech) and 1% of bovine serum albumin (BSA; PanBiotech). Only the ventral portions of the mesencephalic flexure is used for cell preparations as this is the region of the developing brain rich in dopaminergic neurons. The midbrain is dissociated by trypsinisation for 20 min at 37° C. (Trypsin EDTA 1X; PanBiotech). The reaction is stopped by the addition of Dulbecco's modified Eagle's medium (DMEM; PanBiotech) containing DNAse I grade II (0.1 mg/mL; Roche Diagnostic) and 10% of fetal calf serum (FCS; Invitrogen). The cells are mechanically dissociated by 3 passages through a 10 ml pipette. The dissociated cells are then centrifuged at 180×g for 10 min at 4° C. on a layer of BSA (3.5%) in L15 medium. The supernatant is discarded and the pelleted cells are re-suspended in a culture medium consisting of Neurobasal (Invitrogen, Ref: 21103, Batch: 1725098) supplemented with B27 (2%; Invitrogen, ref: 17504), L-glutamine (2 mM; PanBiotech, Ref: P04-80100) and 2% of PS, 10 ng/mL of BDNF (PanBiotech, Ref: CB-1115002) and 1 ng/mL of GDNF (PanBiotech, Ref: CB-1116001). Viable cells are counted in a Neubauer cytometer using the trypan blue exclusion test. The cells are then seeded at a density of 40 000 cells/well in 96 well-plates pre-coated with poly-D-lysine (Greiner) and are cultured at 37° C. in a humidified air (95%)/CO2 (5%) atmosphere. Half of the medium is changed every 2 days with fresh medium. In these conditions, after 5 days of culture, astrocytes are present in the culture and release growth factor allowing neurons differentiation. Five to six percent of the neuronal cell population are dopaminergic neurons.
Each condition is replicated in six wells of the 96-wells culture plates. 1.4. End Point Evaluation: Determination of the Total Number of Dopaminergic Neurons
At the end of the incubation time, the cells are fixed by a solution of 4% paraformaldehyde for 20 min at room temperature. The cells are then permeabilized and non-specific sites are blocked with a solution of phosphate buffered saline (PBS; PanBiotech) containing 0.1% of saponin (Sigma) and 1% fetal calf serum (FCS) for 15 min at room temperature. Eventually, the cells are incubated with a monoclonal anti-Tyrosine Hydroxylase (TH) mouse antibody (Sigma) in PBS containing 1% FCS and 0.1% saponin, for 2 h at room temperature. The anti-TH antibody targets dopaminergic neurons.
The nuclei of the cells is stained by a fluorescent marker (Hoechst solution, SIGMA) in the same solution.
For each condition, 20 pictures per well are taken using InCell Analyzer™ 2000 (GE Healthcare) with 20× magnification. Images of each culture well are also taken.
The analysis of the cell bodies of TH positive neurons are performed using Developer software (GE healthcare). A total of 6 data per experimental condition is provided. All values are expressed as mean±s.e. mean. For statistical analyses ANOVA is performed followed by Dunnett's test.

Nc1nc2[nH]cc(CN[C@H]3C=C[C@H](O)[C@@H]3O)c2c(=O)[nH]1 [queuine, 7-(3,4-trans-4,5-cis-dihydroxy-1-cyclopenten-3-ylaminomethyl)-7-deazaguanine]
effect on 6-OHDA-induced neurotoxicity (preliminary results, rat primary mesencephalic cultures): neuroprotective effect | survival of primary dopaminergic neuron culture (TH positive neurons), % of control (queuine 0.3 μM added 6 days before 6-OHDA intoxication (20 μM, 48 h), FIG. 2): 80.47 % of the control | survival of primary dopaminergic neuron culture (TH positive neurons), % of control (queuine 1 μM added 1 day (24 hours) before 6-OHDA intoxication (20 μM, 48 h), FIG. 1): 81.33 % of the control

NCCc1cc(O)c(O)cc1O [6-OHDA, 6-hydroxydopamine, reference compound]
effect on number of TH positive neurons (6-OHDA alone at 20 μM for 48 h, FIG. 1 and FIG. 2): large and significant decrease

B1: BDNF: brain-derived neurotrophic factor, obtained from PanBiotech, used as positive control (protein, UniProt P23560 19-247, looked up)
Neurotrophic factor BDNF …: APMKEANIRGQGGLAYPGVRTHGTLESVNGPKAGSRGLTSLADTFEHVIEELLDEDQKVRPNEENNKDADLYTSRVMLSSQVPLEPPLLFLLEEYKNYLDAANMSMRVRRHSDPARRGELSVCDSISEWVTAADKKTAVDMSGGTVTVLEKVPVSKGQLKQYFYETKCNPMGYTKEGCRGIDKRHWNSQCRTTQSYVRALTMDSKKRIGWRFIRIDTSCVCTLTIKRGR
survival of primary dopaminergic neuron culture (TH positive neurons), % of control (BDNF 50 ng/mL applied 1 day before 6-OHDA intoxication (20 μM, 48 h), FIG. 1): 80.80 % of the control | survival of primary dopaminergic neuron culture (TH positive neurons), % of control (BDNF 50 ng/mL applied 6 days before 6-OHDA intoxication (20 μM, 48 h), FIG. 2): 83.44 % of the control
